# In ChEMBL document CHEMBL1154739, “Synthesis and AChE inhibitory activity of new chiral tetrahydroacridine analogues from terpenic cyclanones” (Eur J Med Chem, 2010):
# pIC50: −log10 of the molar value.
# Target: T1, Acetylcholinesterase (Rattus norvegicus, UniProt P37136)
# T1 sequence (P37136 whole entry): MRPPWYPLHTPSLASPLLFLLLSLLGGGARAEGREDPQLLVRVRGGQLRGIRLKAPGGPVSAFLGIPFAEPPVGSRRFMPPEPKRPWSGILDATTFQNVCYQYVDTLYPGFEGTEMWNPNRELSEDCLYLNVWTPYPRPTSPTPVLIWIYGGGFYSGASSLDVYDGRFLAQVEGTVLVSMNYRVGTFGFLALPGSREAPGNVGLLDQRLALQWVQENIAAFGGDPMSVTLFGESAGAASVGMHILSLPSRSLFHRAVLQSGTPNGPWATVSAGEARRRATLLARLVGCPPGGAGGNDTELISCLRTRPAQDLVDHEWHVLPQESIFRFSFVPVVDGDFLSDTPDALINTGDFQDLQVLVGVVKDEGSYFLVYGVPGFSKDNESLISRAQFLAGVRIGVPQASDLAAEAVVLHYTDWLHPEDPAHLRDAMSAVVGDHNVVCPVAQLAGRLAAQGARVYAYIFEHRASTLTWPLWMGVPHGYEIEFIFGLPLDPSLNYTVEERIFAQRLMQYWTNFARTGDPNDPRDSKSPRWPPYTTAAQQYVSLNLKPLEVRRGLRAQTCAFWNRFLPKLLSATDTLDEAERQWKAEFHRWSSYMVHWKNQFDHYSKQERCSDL
# Description: Inhibition of AChE from rat cortex by Ellman assay
row,Compound,pIC50
1,C[C@@H]1CCc2c(nc3ccccc3c2N)C1,5.86
2,CC(C)[C@H]1CCc2c(nc3ccccc3c2N)C1,6.09
3,CC1(C)[C@H]2Cc3c(nc4ccccc4c3N)[C@@H]1C2,5.71
4,CC(C)[C@H]1CC[C@H](C(C)C)c2c1nc1ccccc1c2N,5.14
5,C[C@@H]1c2c(nc3ccccc3c2N)[C@H]2C[C@@H]1C2(C)C,5.58
6,CC(C)[C@@H]1Cc2nc3ccccc3c(N)c2C1,5.61
7,C[C@H]1Cc2nc3ccccc3c(N)c2C1,7.21
8,C[C@H]1CC(=O)C(C)(C)c2nc3ccccc3c(N)c2C1,6.54
9,C[C@H]1CC[C@H](C(C)(C)C)c2nc3ccccc3c(N)c21,5.87
